Where a SMILES comes first, the peptide text is derived from it.

The target of the assay is Glucagon-like peptide 1 receptor (Homo sapiens, UniProt P43220). Briefly: Agonist activity at human GLP-1R expressed in HEK293 cells assessed as stimulation of cAMP accumulation incubated for 20 mins. Format: functional, cell-based. (Cyclic AMP is a second messenger, typically raised through Gs and lowered through Gi signalling.)
Sequence of Glucagon-like peptide 1 receptor (P43220 whole entry): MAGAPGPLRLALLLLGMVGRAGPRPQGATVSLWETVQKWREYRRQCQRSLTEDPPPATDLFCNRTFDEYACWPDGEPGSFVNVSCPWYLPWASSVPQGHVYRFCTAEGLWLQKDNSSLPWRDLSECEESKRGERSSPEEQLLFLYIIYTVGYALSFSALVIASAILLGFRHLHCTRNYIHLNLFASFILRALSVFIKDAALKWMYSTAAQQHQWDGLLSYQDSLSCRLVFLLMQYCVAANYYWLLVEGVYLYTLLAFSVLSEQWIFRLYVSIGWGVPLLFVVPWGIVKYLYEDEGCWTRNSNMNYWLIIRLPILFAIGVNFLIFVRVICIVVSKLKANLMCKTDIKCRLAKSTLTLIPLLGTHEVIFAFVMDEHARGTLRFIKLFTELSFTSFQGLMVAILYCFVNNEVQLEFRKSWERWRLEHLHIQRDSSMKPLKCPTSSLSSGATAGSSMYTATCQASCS
`CC[C@H](C)[C@H](NC(=O)[C@H](CC(C)C)NC(=O)[C@H](Cc1c[nH]c2ccccc12)NC(=O)[C@H](CCC(=O)O)NC(=O)[C@@H](NC(=O)[C@H](CS)NC(=O)[C@H](CCC(=O)O)NC(=O)[C@H](CCCCN)NC(=O)[C@H](C)NC(=O)[C@H](C)NC(=O)[C@H](CCC(=O)O)NC(=O)[C@H](CCC(=O)O)NC(=O)[C@H](CS)NC(=O)[C@H](CC(C)C)NC(=O)[C@H](Cc1ccc(O)cc1)NC(=O)[C@H](CCC(=O)O)NC(=O)[C@@H](NC(=O)[C@@H](NC(=O)[C@H](CC(=O)O)NC(=O)[C@H](CC(N)=O)NC(=O)[C@@H](NC(=O)[C@H](Cc1ccc(O)cc1)NC(=O)[C@@H](NC(=O)CNC(=O)[C@H](CCC(=O)O)NC(=O)C(C)(C)NC(=O)[C@@H](N)Cc1c[nH]cn1)[C@@H](C)O)[C@@H](C)O)C(C)C)[C@@H](C)O)[C@@H](C)CC)C(=O)N[C@@H](CCCCN)C(=O)NCC(=O)N[C@@H](CCCCN)C(=O)N1CCC[C@H]1C(=O)N[C@@H](CO)C(=O)N[C@@H](CO)C(=O)NCC(=O)N[C@@H](C)C(=O)N1CCC[C@H]1C(=O)N1CCC[C@H]1C(=O)N1CCC[C@H]1C(=O)N[C@@H](CO)C(N)=O` (HELM PEPTIDE1{H.[Aib].E.G.T.Y.T.N.D.V.T.E.Y.L.C.E.E.A.A.K.E.C.I.E.W.L.I.K.G.K.P.S.S.G.A.P.P.P.S.[am]}$$$$V2.0): the EC50 (as a rule, the concentration at which the effect is half-maximal) was 220 pM.

Consider `CC[C@H](C)[C@H](NC(=O)[C@H](CC(C)C)NC(=O)[C@H](Cc1c[nH]c2ccccc12)NC(=O)[C@H](CCC(=O)O)NC(=O)[C@@H](NC(=O)[C@H](CS)NC(=O)[C@H](CCC(=O)O)NC(=O)[C@H](CCCCN)NC(=O)[C@H](C)NC(=O)[C@H](C)NC(=O)[C@H](CCC(=O)O)NC(=O)[C@H](CCC(=O)O)NC(=O)[C@H](CS)NC(=O)[C@H](CC(C)C)NC(=O)[C@H](Cc1ccc(O)cc1)NC(=O)[C@H](CCC(=O)O)NC(=O)[C@@H](NC(=O)[C@@H](NC(=O)[C@H](CC(=O)O)NC(=O)[C@H](CC(N)=O)NC(=O)[C@@H](NC(=O)[C@H](Cc1ccc(O)cc1)NC(=O)[C@@H](NC(=O)CNC(=O)[C@H](CCC(=O)O)NC(=O)C(C)(C)NC(=O)[C@@H](N)Cc1c[nH]cn1)[C@@H](C)O)[C@@H](C)O)C(C)C)[C@@H](C)O)[C@@H](C)CC)C(=O)N[C@@H](CCCCN)C(=O)NCC(=O)N[C@@H](CCCCN)C(N)=O` (HELM PEPTIDE1{H.[Aib].E.G.T.Y.T.N.D.V.T.E.Y.L.C.E.E.A.A.K.E.C.I.E.W.L.I.K.G.K.[am]}$$$$V2.0), for which the EC50 is 590 pM. As for `CC[C@H](C)[C@H](NC(=O)[C@H](CC(C)C)NC(=O)[C@H](Cc1c[nH]c2ccccc12)NC(=O)[C@H](CCC(=O)O)NC(=O)[C@H](CS)NC(=O)[C@H](Cc1ccccc1)NC(=O)[C@H](CCC(=O)O)NC(=O)[C@H](CCCCN)NC(=O)[C@H](C)NC(=O)[C@H](C)NC(=O)[C@H](CCC(=O)O)NC(=O)[C@H](CS)NC(=O)[C@H](CCC(=O)O)NC(=O)[C@H](CC(C)C)NC(=O)[C@H](Cc1ccc(O)cc1)NC(=O)[C@H](CCC(=O)O)NC(=O)[C@@H](NC(=O)[C@@H](NC(=O)[C@H](CC(=O)O)NC(=O)[C@H](CC(N)=O)NC(=O)[C@@H](NC(=O)[C@H](Cc1ccc(O)cc1)NC(=O)[C@@H](NC(=O)CNC(=O)[C@H](CCC(=O)O)NC(=O)C(C)(C)NC(=O)[C@@H](N)Cc1c[nH]cn1)[C@@H](C)O)[C@@H](C)O)C(C)C)[C@@H](C)O)C(=O)N[C@@H](CCCCN)C(=O)NCC(=O)N[C@@H](CCCCN)C(=O)N1CCC[C@H]1C(=O)N[C@@H](CO)C(=O)N[C@@H](CO)C(=O)NCC(=O)N[C@@H](C)C(=O)N1CCC[C@H]1C(=O)N1CCC[C@H]1C(=O)N1CCC[C@H]1C(=O)N[C@@H](CO)C(N)=O` (HELM PEPTIDE1{H.[Aib].E.G.T.Y.T.N.D.V.T.E.Y.L.E.C.E.A.A.K.E.F.C.E.W.L.I.K.G.K.P.S.S.G.A.P.P.P.S.[am]}$$$$V2.0), the EC50 was determined as 280 pM.

The values above are taken from ChEMBL document CHEMBL4699602, “Stapled and Xenopus Glucagon-Like Peptide 1 (GLP-1)-Based Dual GLP-1/Gastrin Receptor Agonists with Improved Metabolic Benefits in Rodent Models of Obesity and Diabetes” (J Med Chem, 2020).
